Experimental data as given in patent publication US9828375B2, “4-position substituted pyrazolopyrimidine derivative, and use thereof in drug preparation” (Guangxi Wuzhou Pharmaceuticals (Group) Co., Ltd., priority 2012, dated 2017).

What was measured:
[1] = system: human leukemia cell line MV4-11; experiment: In vitro tumor cell proliferation inhibition (MTT): MV4-11; assay type: cell-based
From the text: (§1) The purpose of the experiment was to test the inhibition activity of the compounds of the invention for in vitro human tumor cell proliferation by the methyl thiazolyl tetrazolium (MTT) colorimetry.
(§2) Main reagents: RPMI-1640, fetal bovine serum, pancreatin, etc. were purchased from Gibco BRL Company (Invitrogen Corporation, USA) and IMDM medium that was purchased from American Type Culture Collection (ATCC). Methyl thiazolyl tetrazolium (MTT) and dimethyl sulfoxide (DMSO) were products from Sigma Company (USA). Pyrazolopyrimidine derivatives were composed by the inventor. During in vitro experiment, 100% DMSO was prepared into 10 mM storage solution, the solution was stored in a refrigerator at −20° C. for future use, and was diluted to the required concentration with complete culture solution before use.
(§3) Cell line and culture: Human leukemia cell line MV4-11, Jurkat, K562, human thyrophyma cell line TT, human gastric carcinoma cell line MKN-45, human malignant melanoma cell lines A375 and A875, human pancreatic carcinoma cell line panc-1, human cervical carcinoma cell line HELA, human colorectal carcinoma cell line HCT116, etc. were purchased from American type culture collection and were preserved by this laboratory. All leukemia cell lines (except MV4-11), gastric carcinoma cell lines and thyrophyma cell lines were cultured in RPMI-1640 complete medium containing 10% fetal bovine serum, 100 U/mL penicillin and 100 μg/mL streptomycin at 37° C. in 5% CO2. The remaining cell lines were cultured in DMEM complete medium containing 10% fetal bovine serum (containing 20% MV4-11 cell), 100 U/mL penicillin and 100 µg/mL streptomycin at 37° C. in 5% CO2.
(§4) Cell suspension with cell concentration of 1-2×10^4/mL was adjusted with the complete cell medium and inoculated in a 96-well plate, with each well filled with 200 μl cell suspension that was cultured overnight. On the next day, supernatant was sucked and abandoned (supernatant was sucked upon centrifugation of suspension cells), and then cells were processed with test compounds at gradient concentrations respectively. Meanwhile, a negative control group free from drug and a solvent control group with equal volume were set, and the DMSO concentration was 0.1%. Each dose group was provided with three wells and cultured at 37° C. in 5% CO2. After 72 hours, 20 μl 5 mg/mL MTT reagent was added to each well, and cultured for another 2 to 4 hours, the supernatant was abandoned; 150 μL DMSO was added to each well again, vibrated and mixed evenly for 15 minutes; the absorbance (A) values (proportional to living cell amount) were determined with a microplate reader (λ=570 nm) and averaged. […] Experiment was repeated for 3 times at least. Experimental data were expressed with means, data statistics were tested by t, and P<0.05 means that difference has a statistical significance. The cell proliferation inhibition effects of all compounds as follows are expressed by IC50 or inhibition rate.

[2] = molecular target: VEGFR2 (Homo sapiens, UniProt P35968); experiment: Kinase inhibition activity test, isotope labeling (γ-33P-ATP): VEGFR2; assay type: biochemical; details: for IC50: ATP 90 μM, read-out: VEGFR2 IC50 value (inhibitory activity value); for Activity inhibition rate VEGFR2 (h) / inhibition at 10 µM: test compound at a concentration of 10 μM; for inhibition at 10 µM: read-out: Activity inhibition rate VEGFR2 (h)
VEGFR2, sequence (P35968 20-1356): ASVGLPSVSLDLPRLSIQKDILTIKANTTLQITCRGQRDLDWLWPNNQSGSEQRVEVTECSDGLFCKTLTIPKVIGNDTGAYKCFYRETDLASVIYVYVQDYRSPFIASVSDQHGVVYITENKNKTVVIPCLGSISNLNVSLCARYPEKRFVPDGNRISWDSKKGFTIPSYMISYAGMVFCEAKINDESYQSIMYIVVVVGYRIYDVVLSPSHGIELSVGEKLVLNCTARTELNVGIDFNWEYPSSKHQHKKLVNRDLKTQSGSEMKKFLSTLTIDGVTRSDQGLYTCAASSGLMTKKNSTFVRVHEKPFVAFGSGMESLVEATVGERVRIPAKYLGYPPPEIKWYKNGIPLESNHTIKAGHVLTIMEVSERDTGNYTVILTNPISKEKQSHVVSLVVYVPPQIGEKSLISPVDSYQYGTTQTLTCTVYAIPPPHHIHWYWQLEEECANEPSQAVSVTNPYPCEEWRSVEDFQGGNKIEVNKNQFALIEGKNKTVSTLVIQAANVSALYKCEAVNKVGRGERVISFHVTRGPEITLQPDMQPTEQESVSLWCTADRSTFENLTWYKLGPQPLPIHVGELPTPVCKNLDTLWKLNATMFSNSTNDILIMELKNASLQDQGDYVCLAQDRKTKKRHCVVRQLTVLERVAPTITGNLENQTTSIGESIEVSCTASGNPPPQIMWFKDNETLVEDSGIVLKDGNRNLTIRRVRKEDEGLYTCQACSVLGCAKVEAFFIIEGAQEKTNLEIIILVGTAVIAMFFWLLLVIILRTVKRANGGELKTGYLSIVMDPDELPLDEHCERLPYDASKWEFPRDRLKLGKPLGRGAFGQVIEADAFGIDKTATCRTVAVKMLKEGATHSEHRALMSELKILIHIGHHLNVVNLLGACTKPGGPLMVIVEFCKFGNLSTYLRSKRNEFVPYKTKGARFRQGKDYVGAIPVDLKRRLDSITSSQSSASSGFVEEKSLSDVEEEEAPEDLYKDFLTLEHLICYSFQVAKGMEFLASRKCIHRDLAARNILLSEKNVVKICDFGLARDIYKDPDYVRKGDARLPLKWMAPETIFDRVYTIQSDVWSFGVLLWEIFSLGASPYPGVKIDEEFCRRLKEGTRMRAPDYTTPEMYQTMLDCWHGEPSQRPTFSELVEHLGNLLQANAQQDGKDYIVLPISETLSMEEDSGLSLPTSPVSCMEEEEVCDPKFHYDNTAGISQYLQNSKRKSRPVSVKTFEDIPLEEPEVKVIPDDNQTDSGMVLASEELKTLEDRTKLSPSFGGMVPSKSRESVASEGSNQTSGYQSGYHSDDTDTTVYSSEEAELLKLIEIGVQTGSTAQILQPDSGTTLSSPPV
Protocol: (§5) The purpose of this experiment was to test the inhibitory activity of the compound of the invention for in vitro kinase with the isotope labeling method (the γ phosphate group on ATP was labeled). In this experiment, the in vitro activity inhibition of such kinases as FLT3, VEGFR2, FLT1, FLT4, RET, c-RAF, B-RAF, c-KIT, PDGFα, PDGFβ, FGFR2, FGFR1, EphA2, EphB2, SRC, ABL, ALK and Met was tested respectively. Staurosporine was reference molecule (or referred to as positive control). The kinase inhibition activity of the test compound was expressed by half-inhibitory concentration (IC50) or the kinase activity inhibition rate of the test compound at a concentration of 10 μM. The IC50 value could be obtained by calculating the kinase activity inhibition rate of the test compound at different concentrations.
(§6) 20 mM 3-(N-morpholinyl)propanesulfonic acid (MOPS); 1 mM ethylenediaminetetraacetic acid (EDTA), 0.01% Brij 35 (Brij-35), 5% glycerol, 0.1% mercaptoethanol, 1 mg/mL bovine serum albumin (BSA), 10 mM manganous dichloride solution (MnCl2), 0.1 mg/mL glutamic acid/tyrosine (4:1) polypeptide (poly(Glu, Tyr)4:1), 50 μM EAIYAAPFAKKK (substrate of FLT3), 0.33 mg/mL myelin basic protein (substrate of VEGFR2), 250 μM KKKSPGEYVNIEFG (substrate of FLT1(h)), 500 μM GGEEEEYFELVKKKK (substrate of FLT4(h)), 250 μM KKKSPGEYVNIEFG (substrate of RET), 0.66 mg/mL myelin basic protein (substrate of C-RAF), 250 μM GGMEDIYFEFMGGKKK (substrate of c-Kit), 250 μM GGMEDIYFEFMGGKKK (substrate of PDGFα), 250 μM KKKSPGEYVNIEFG (substrate of FGFR1), […] GGEEEEYFELVKKKK (substrate of SRC), 50 μM EAIYAAPFAKKK (substrate of ABL), 250 μM KKKSPGEYVNIEFG (substrate of ALK), 250 μM KKKSPGEYVNIEFG (substrate of Met(h)), 10 mM magnesium acetate and γ-^33 P-ATP solution, stop buffer (3% phosphate buffer), washing buffer (75 mM phosphate solution), methanol, Filtermat A membrane, FLT3, VEGFR2, FLT3, VEGFR2, FLT1, FLT4, RET, c-RAF, B-RAF, c-KIT, PDGFRα, PDGFRβ, FGFR2, FGFR1, EphA2, EphB2, SRC, ABL, ALK, Met and other kinases, and the test compounds.
(§7) Buffers (8 mM MOPS with pH value of 7.0, 0.2 mM EDTA and 10 mM MnCl2), (5-10 mU) kinases to be tested (FLT3, VEGFR2, FLT1, FLT4, RET, c-RAF, B-RAF, c-KIT, PDGFRα, PDGFRβ, FGFR2, FGFR1, EphA2, EphB2, SRC, ABL, ALK and Met), substrates of kinases to be tested (refer to experimental materials), 10 mM magnesium acetate and γ-^33 P-ATP solution, and test compounds at different concentrations were added to a reaction tube orderly. […] Reaction was terminated with 5 μL 3% phosphate buffer finally, and 10 μL reaction solution was titrated to the Filtermat A membrane; solution was washed for 3 times with 75 mM phosphate solution with each time lasting 5 minutes, and then washed once with methanol. Finally, the Filtermat A membrane was dried, and scintillation counting was performed on the membrane, with scintillation count reflecting the phosphorylation degree of the substrates, so that the activity inhibition of kinase could be characterized.

[3] = system: human gastric carcinoma cell line MKN-45; experiment: In vitro tumor cell proliferation inhibition (MTT): MKN-45; assay type: cell-based
From the text: as §1, §2, §3, §4

[4] = system: human pancreatic carcinoma cell line panc-1; experiment: In vitro tumor cell proliferation inhibition (MTT): panc-1; assay type: cell-based
From the text: as §1, §2, §3, §4

[5] = system: human leukemia cell line K562; experiment: In vitro tumor cell proliferation inhibition (MTT): K562; assay type: cell-based
From the text: as §1, §2, §3, §4

[6] = molecular target: PDGFRα (Homo sapiens, UniProt P16234); experiment: Kinase inhibition activity test, isotope labeling: PDGFRα; assay type: biochemical; details: for Activity inhibition rate PDGFRα (h) / inhibition at 10 µM: test compound at a concentration of 10 μM; for IC50: ATP 120 μM, read-out: PDGFRα IC50 value (inhibitory activity value); for inhibition at 10 µM: read-out: Activity inhibition rate PDGFRα (h)
PDGFRα, sequence (P16234 24-1089): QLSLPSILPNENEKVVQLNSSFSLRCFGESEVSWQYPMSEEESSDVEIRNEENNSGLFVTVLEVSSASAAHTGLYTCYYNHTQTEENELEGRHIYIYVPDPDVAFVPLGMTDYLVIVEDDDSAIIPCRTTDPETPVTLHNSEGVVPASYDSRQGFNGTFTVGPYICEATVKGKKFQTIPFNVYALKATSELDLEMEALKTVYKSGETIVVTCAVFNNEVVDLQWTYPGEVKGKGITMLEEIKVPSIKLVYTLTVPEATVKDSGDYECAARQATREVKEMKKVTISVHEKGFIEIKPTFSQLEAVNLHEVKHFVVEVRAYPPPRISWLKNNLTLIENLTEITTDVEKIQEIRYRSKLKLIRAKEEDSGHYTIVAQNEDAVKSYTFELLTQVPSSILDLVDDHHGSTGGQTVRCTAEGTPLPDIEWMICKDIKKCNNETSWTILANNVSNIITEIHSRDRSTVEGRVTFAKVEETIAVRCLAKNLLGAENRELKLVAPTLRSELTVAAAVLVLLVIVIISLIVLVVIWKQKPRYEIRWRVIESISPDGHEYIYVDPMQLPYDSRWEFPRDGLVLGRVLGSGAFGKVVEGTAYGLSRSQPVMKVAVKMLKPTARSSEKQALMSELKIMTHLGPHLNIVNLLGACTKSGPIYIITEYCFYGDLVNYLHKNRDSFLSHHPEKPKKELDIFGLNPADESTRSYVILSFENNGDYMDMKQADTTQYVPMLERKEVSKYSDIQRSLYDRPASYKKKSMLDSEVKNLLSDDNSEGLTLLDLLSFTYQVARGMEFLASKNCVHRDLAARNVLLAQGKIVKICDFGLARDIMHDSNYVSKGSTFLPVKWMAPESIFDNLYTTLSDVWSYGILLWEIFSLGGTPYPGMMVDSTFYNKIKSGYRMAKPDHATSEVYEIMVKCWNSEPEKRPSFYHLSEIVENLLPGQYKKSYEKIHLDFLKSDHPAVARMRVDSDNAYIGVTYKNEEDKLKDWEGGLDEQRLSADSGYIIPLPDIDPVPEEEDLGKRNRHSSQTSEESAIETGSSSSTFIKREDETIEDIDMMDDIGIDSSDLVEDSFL
Protocol: as §5, §6, §7

SMILES	IC50 ([1]; 72 hours) [nM]	IC50 [2] [nM]	Activity inhibition rate VEGFR2 (h) [2] [%]	IC50 ([3]; 72 hours) [µM]	IC50 ([4]; 72 hours) [µM]	IC50 ([5]; 72 hours) [µM]	Activity inhibition rate PDGFRα (h) [6] [%]	IC50 [6] [nM]	IC50 ([1]; Homo sapiens, MV4-11, 72 h) [nM]	inhibition at 10 µM [2] [%]	IC50 ([3]; Homo sapiens, MKN-45, 72 hours) [µM]	IC50 ([4]; Homo sapiens, PANC-1, 72 hours) [µM]	IC50 ([5]; Homo sapiens, K562, 72 hours) [µM]	inhibition at 10 µM [6] [%]
O=C(Nc1ccc(Oc2ncnc3[nH]ncc23)cc1)Nc1cc(C(F)(F)F)cc(C(F)(F)F)c1 [4a-12, 1-(4-((1H-pyrazolopyrimidine-4-yl)oxy)phenyl)-3-(3,5-bis(trifluoromethyl)phenyl)urea]	17	24	100	8.29	< 50	9.12	52	–	–	–	–	–	–	–
O=C(Nc1ccc(Oc2ncnc3[nH]ncc23)cc1)Nc1ccc(C(F)(F)F)cc1Cl [4a-13]	18	37	100	6.68	< 50	< 50	63	–	–	–	–	–	–	–
O=C(Nc1ccccc1)Nc1ccc(Oc2ncnc3[nH]ncc23)cc1 [4a-15, 1-(4-((1H-pyrazolopyrimidine-4-yl)oxy)phenyl)-3-phenylurea]	320	28	100	< 50	< 50	< 50	48	–	–	–	–	–	–	–
C[C@H](NC(=O)Nc1ccc(Oc2ncnc3[nH]ncc23)cc1)c1ccccc1 [4a-18, (S)-1-(4-((1H-pyrazolopyrimidine-4-yl)oxy)phenyl)-3-(1-phenethyl)urea]	112	–	95	< 50	< 50	< 50	96	–	–	–	–	–	–	–
C[C@@H](NC(=O)Nc1ccc(Oc2ncnc3[nH]ncc23)cc1)c1ccccc1 [4a-19, (R)-1-(4-((1H-pyrazolopyrimidine-4-yl)oxy)phenyl)-3-(1-phenethyl)urea]	124	–	92	< 50	< 50	< 50	84	–	–	–	–	–	–	–
CC(C)(C)c1cc(NC(=O)Nc2ccc(Oc3ncnc4[nH]ncc34)cc2)n(-c2ccccc2)n1 [4a-24]	0.4	14	100	2.84	< 50	< 50	>50	–	–	–	–	–	–	–
CC(C)(C)c1cc(NC(=O)Nc2ccc(Oc3ncnc4[nH]ncc34)cc2)on1 [4a-25]	0.3	12	100	1.3	3 to 10	3 to 10	>50	1400	–	–	–	–	–	–
CC(C)(C)c1cc(NC(=O)Nc2ccc(Oc3ncnc4[nH]ncc34)cc2)no1 [4a-26]	–	12	–	–	–	–	–	–	0.3	100	1.12	3 to 10	3 to 10	> 50
O=C(Nc1ccc(Oc2ncnc3[nH]ncc23)cc1)Nc1cc(C(F)(F)F)on1 [4a-28]	–	–	–	–	–	–	–	–	1.2	100	3 to 10	< 50	3 to 10	> 50
CC(C)(C)c1cc(NC(=O)Nc2ccc(Oc3ncnc4[nH]ncc34)c(F)c2)no1 [4a-31]	0.4	11	100	< 50	3 to 10	3 to 10	>50	< 10000	–	–	–	–	–	–
O=C(Nc1cccc(Nc2ncnc3[nH]ncc23)c1)Nc1ccc(F)c(Cl)c1 [4b-1]	–	–	–	–	–	–	–	–	< 50000	93	< 50	< 50	3.45	> 30
C[C@@H](NC(=O)Nc1ccc(Nc2ncnc3[nH]ncc23)cc1)c1ccccc1 [4b-2, (R)-1-(4-(1H-pyrazolopyrimidine-4-amido)phenyl)-3-(1-phenethyl)urea]	8030	–	–	–	–	–	–	–	–	88	< 50	< 50	< 50	> 30
